Laboratory results reported in US12064513B2, “Cationic lipid exhibiting improved intracellular dynamics” (NOF CORPORATION, priority 2018, dated 2024).

Experiment: Measurement of Liposomal pKa with TNS, empty LNP (Experimental Example 11)
Format: physicochemical
Conditions: cationic lipid:DOPC:Chol:DMG-PEG2k=52.5:7.5:40:1.5
Protocol: 20 mM Citrate buffer, sodium phosphate buffer and tris HCl buffer each containing NaCl at a final concentration of 150 mM and adjusted to various pHs within the range of pH 3.0-10.0 were prepared. LNP prepared in [Experimental Example 3], 1, was diluted with PBS to a lipid concentration of 0.5 mM. TNS (manufactured by Sigma) was diluted with ultrapure water to 0.6 mM. TNS solution (2 μL), various LNP solutions (12 μL), and buffers adjusted to various pHs (186 μL) were added to a black 96 well plate. The plate was protected from light and shaken at 400 rpm for 10 min. The fluorescence intensity (excitation: 321 nm/emission: 447 nm) was measured using a plate reader (manufactured by TECAN). The relative fluorescence intensity was calculated as a percentage, with the maximum value of the fluorescence intensity in each LNP being 100% and the minimum value being 0%. Furthermore, the pH at which the relative fluorescence intensity was 50% was taken as Liposomal pKa.
For the evaluation of Liposomal pKa, empty LNP not encapsulating nucleic acid was used. The empty LNP (cationic lipid:DOPC:Chol:DMG-PEG2k=52.5:7.5:40:1.5) was produced by performing particle preparation in the method described in [Experimental Example 10] without using a nucleic acid.
Liposomal pKa was calculated by the method described in [Experimental Example 3].

Structure (SMILES): CCCCCCCC/C=C\CCCCCCCC(=O)Oc1ccc(CC(=O)NCCC2CCN(CCSSCCN3CCC(CCNC(=O)Cc4ccc(OC(=O)CCCCCCC/C=C\CCCCCCCC)cc4)CC3)CC2)cc1 [O-Ph-amide-P4C2]
- Liposomal pKa: improved pKa
